This experiment deals with T1, mTOR (Homo sapiens, UniProt P42345).
T1 construct: purchased Invitrogen PR8683A
Description: mTOR HTR-FRET assay. Particulars: read-out: Act. Level (IC50 in mTor HTR-FRET assay). Format: biochemical. An outline of the steps: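 Test compounds, taken from 10 mM DMSO stocks and diluted, were mixed with mTOR enzyme (0.200 μg/mL) in Tris buffer pH 7.4 with 100 mM NaCl, 0.1% Tween-20 and 1 mM DTT. ATP/substrate addition initiated the reaction, alongside compound-free controls.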

The source of these data is US11292796B2 (SIGNAL PHARMACEUTICALS, LLC, priority 2008, dated 2022).

SMILES strings stand for the structures.

T1 sequence (P42345 1360-2549 limits assumed): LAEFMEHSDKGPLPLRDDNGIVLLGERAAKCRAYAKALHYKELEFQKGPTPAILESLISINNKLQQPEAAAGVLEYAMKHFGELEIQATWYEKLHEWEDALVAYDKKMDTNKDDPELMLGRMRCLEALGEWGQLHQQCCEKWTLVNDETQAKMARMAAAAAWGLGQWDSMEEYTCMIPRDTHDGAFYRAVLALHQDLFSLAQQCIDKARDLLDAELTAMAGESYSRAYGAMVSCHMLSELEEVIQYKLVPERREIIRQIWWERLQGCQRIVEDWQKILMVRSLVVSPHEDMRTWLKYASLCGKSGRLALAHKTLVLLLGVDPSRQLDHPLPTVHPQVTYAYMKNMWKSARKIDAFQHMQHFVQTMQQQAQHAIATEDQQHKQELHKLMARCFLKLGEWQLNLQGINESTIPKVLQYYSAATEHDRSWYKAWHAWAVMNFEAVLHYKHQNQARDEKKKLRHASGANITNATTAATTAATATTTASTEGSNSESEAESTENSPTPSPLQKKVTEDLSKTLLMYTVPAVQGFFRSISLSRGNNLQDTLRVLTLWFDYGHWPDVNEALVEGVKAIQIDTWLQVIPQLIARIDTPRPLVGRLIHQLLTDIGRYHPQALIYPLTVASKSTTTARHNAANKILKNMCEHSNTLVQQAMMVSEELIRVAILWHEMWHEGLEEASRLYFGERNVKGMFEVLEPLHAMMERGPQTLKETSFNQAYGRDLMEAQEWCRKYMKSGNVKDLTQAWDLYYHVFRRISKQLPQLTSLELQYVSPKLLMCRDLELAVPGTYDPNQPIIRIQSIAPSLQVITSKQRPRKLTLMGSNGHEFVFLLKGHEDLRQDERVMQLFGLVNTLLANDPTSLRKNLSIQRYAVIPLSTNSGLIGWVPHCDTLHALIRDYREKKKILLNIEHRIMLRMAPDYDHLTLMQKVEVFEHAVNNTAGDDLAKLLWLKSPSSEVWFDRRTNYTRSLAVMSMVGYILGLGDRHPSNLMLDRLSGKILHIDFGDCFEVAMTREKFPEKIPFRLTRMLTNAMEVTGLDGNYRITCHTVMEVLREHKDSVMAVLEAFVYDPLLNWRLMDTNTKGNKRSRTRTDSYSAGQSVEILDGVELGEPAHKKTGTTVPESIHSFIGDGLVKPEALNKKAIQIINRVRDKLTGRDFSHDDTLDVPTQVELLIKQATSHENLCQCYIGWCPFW

For the compound `Cc1cc(-c2nnc[nH]2)ccc1-c1cnc2c(n1)N1CCNCC1C(=O)N2` (stereo not shown) [Example 97, 9-(4-(4H-1,2,4-triazol-3-yl)-2-methylphenyl)-6,11,4a-trihydropiperazino[1,2-e]pyrazino[2,3-b]pyrazin-5-one], the IC50 was in the range of 0.005 to 250 nM.
As to `COCCN1CCN2c3nc(-c4ccc(-c5nnc[nH]5)cc4C)cnc3NC(=O)C2C1` (stereo not shown) [Example 98, 9-(4-(4H-1,2,4-triazol-3-yl)-2-methylphenyl)-3-(2-methoxyethyl)-6,11,4a-trihydropiperazino[1,2-e]pyrazino[2,3-b]pyrazin-5-one], the concentration for half-maximal inhibition (IC50) lay in the range of 250 to 500 nM.
For `Cc1nc(-c2nnc[nH]2)ccc1-c1cnc2c(n1)N(CC1CCCC1)CC(=O)N2` [Example 99, 4-(cyclopentylmethyl)-6-(2-methyl-6-(4H-1,2,4-triazol-3-yl)pyridin-3-yl)-3,4-dihydropyrazino[2,3-b]pyrazin-2(1H)-one], the IC50 fell in the range of 0.005 to 250 nM.
Regarding `Cc1nc(-c2nnc[nH]2)ccc1-c1cnc2c(n1)N1CCOCC1C(=O)N2` (stereo not shown) [Example 100, 9-(6-(4H-1,2,4-triazol-3-yl)-2-methyl-3-pyridyl)-6,11,4a-trihydromorpholino[4,3-e]pyrazino[2,3-b]pyrazin-5-one], the IC50 was in the range of 250 to 500 nM.
The result for `CC(C)(O)c1ccc(-c2cnc3c(n2)N([C@H]2CC[C@H](O)CC2)CC(=O)N3)cn1` [Example 101, 4-(trans-4-hydroxycyclohexyl)-6-(6-(2-hydroxypropan-2-yl)pyridin-3-yl)-3,4-dihydropyrazino[2,3-b]pyrazin-2(1H)-one] reads 0.005 to 250 nM; that for `CC(C)(O)c1ccc(-c2cnc3c(n2)N([C@H]2CC[C@@H](O)CC2)CC(=O)N3)cn1` [Example 102, 4-(cis-4-hydroxycyclohexyl)-6-(6-(2-hydroxypropan-2-yl)pyridin-3-yl)-3,4-dihydropyrazino[2,3-b]pyrazin-2(1H)-one], 250 to 500 nM.
Next, `CC(C)(O)c1ccc(-c2cnc3c(n2)N(CC2CCOC2)CC(=O)N3)cn1` (stereo not shown) [Example 103, 6-(6-(2-hydroxypropan-2-yl)pyridin-3-yl)-4-((tetrahydrofuran-3-yl)methyl)-3,4-dihydropyrazino[2,3-b]pyrazin-2(1H)-one]: 500 to 1000 nM; `CC(C)(O)c1ccc(-c2cnc3c(n2)N(CC2CCCC2)CC(=O)N3)cn1` [Example 104, 4-(cyclopentylmethyl)-6-(6-(2-hydroxypropan-2-yl)pyridin-3-yl)-3,4-dihydropyrazino[2,3-b]pyrazin-2(1H)-one]: 0.005 to 250 nM.
`CC(C)(C)CN1CC(=O)Nc2ncc(-c3ccc(C(C)(C)O)nc3)nc21` [Example 105, 6-(6-(2-hydroxypropan-2-yl)pyridin-3-yl)-4-neopentyl-3,4-dihydropyrazino[2,3-b]pyrazin-2(1H)-one]: the IC50 fell in the range of 250 to 500 nM.
With `CC(C)CN1CC(=O)Nc2ncc(-c3ccc(C(C)(C)O)nc3)nc21` [Example 106, 6-(6-(2-hydroxypropan-2-yl)pyridin-3-yl)-4-isobutyl-3,4-dihydropyrazino[2,3-b]pyrazin-2(1H)-one], the IC50 was 500 to 1000 nM.
In the case of `Cc1cc(-c2nnc[nH]2)ccc1-c1cnc2c(n1)N(CCC1CCOCC1)C(C)C(=O)N2` (stereo not shown) [Example 107, 3-methyl-6-(2-methyl-4-(4H-1,2,4-triazol-3-yl)phenyl)-4-(2-(tetrahydro-2H-pyran-4-yl)ethyl)-3,4-dihydropyrazino[2,3-b]pyrazin-2(1H)-one], the IC50 was 0.005 to 250 nM.
As for `CC(C)(O)c1ccc(-c2cnc3c(n2)N(C2CCNCC2)CC(=O)N3)cn1` [Example 108, 6-(6-(2-hydroxypropan-2-yl)pyridin-3-yl)-4-(piperidin-4-yl)-3,4-dihydropyrazino[2,3-b]pyrazin-2(1H)-one], the half-maximal inhibitory concentration (IC50) lay within 1000 to 10000 nM.
Turning to `CC(C)(O)c1ccc(-c2cnc3c(n2)N(CCC2CCCOC2)CC(=O)N3)cn1` (stereo not shown) [Example 109, 6-(6-(2-hydroxypropan-2-yl)pyridin-3-yl)-4-(2-(tetrahydro-2H-pyran-3-yl)ethyl)-3,4-dihydropyrazino[2,3-b]pyrazin-2(1H)-one], the concentration for half-maximal inhibition (IC50) was 0.005 to 250 nM.

Broadly, the IC50 is the concentration that gives 50% inhibition.
